# Measured values taken from patent US11717531B2, “Preeclampsia” (ASTON UNIVERSITY, priority 2015, dated 2023).
# Experiments:
# preeclampsia = conditions: low-dose, started before 16 weeks' gestation, high-risk women; cited from earlier work
# miR-122 = test: qPCR of miR-122 expression in treated HUVEC; format: cell-based, human; conditions: 24 hours
# Protocol: (§1) FIG. 2. MiR-122 and miR-374b are regulated by various agents that regulate sFlt-1 release. HUVEC cells were treated with 10 uM Hemin (A), 2 uM or 20 uM Pravastatin (B) 20 ng/ml VEGF-A (C) or 20 ng/ml VEGF-E (D) for 24 hours. Total RNA of the treated cells was isolated and the expression of miR-122 and miR-374b was measured by quantitative PCR. The relative miR-122 and miR-374b expression was normalized to RNU6.
# (§2) FIG. 3. Hmox1 regulates miR-122 and miR-374b expression. HUVEC cells were infected by adenovirus overexpressiong Hmox1 (A) or transfected with siRNA against Hmox1 (B) for 24 hours and the relative expression of miR-122 and miR-374b was measured by qPCR.
# (§3) Human umbilical vein endothelial cells (HUVECs) were isolated and cultured in M199 medium as described previously (Bussolati et al, 2001). Experiments were performed on third or fourth passage HUVEC.
# (§4) Sample preparation and real-time quantitative PCR was performed as described previously (Cudmore et al., 2007).
# miR-374b = test: qPCR of miR-374b expression in treated HUVEC; format: cell-based, human; conditions: 24 hours
# Protocol: as §1, §2, §3, §4
# miR-152 = test: qPCR of miR-152 expression in HUVEC; format: cell-based, human; conditions: growth factor 20 ng/ml, 24 hours
# Protocol: FIG. 9 Hypoxia, inflammatory cytokine or angiogenic growth factor stimulation increases microRNA-152 expression in endothelial cells and placental explants. Human placental explants was treated with (A) inflammatory cytokine mix (TNF-α, 20 ng/ml, IFN-γ, 20 ng/ml and IL-1β, 2 ng/ml), (B) hypoxia (1% 02) condition or (C) combination of cytokine mix and hypoxia condition and assayed for miR-152 expression using qPCR. Similarly, HUEVC cells were treated with (D) hypoxia (1% 02) condition, VEGF-E (20 ng/ml, E) or FGF-2 (20 ng/ml, F) for 24 hours and used for qPCR analysis of miR-152 expression. Moreover, overexpression of miR-152 inhibited PlGF release, but not the sFlt-1 and sEng in endothelial cells. HUVECs were electroporated with mimic-152 or control mimic-con. After resting for 24 hours, the transfected cells were treated with vehicle or VEGF-E (20 ng/ml) in the conditioned media. […] Data is shown as mean+SEM and analyzed by Student t-test.
# Human umbilical vein endothelial cells (HUVECs) were isolated and cultured in M199 medium as described previously (Bussolati et al, 2001). […] Briefly, human placental villus explants were incubated under stimulation of test substances or hypoxia condition and collected for quantitative PCR of miR-152. […]
# as §4
# sFlt-1 = sFlt-1 release from HUVEC, ELISA of conditioned media; format: cell-based, human; conditions: 24 hours
# Protocol: as §3
# Chemically synthesized double-stranded microRNA mimic and single-stranded inhibitor against miR-122 (mi-122 and anti-122) and miR-374b (mi-374b and anti-374b) were purchased from Qiagen and the efficiency was tested by Qpcr (FIG. 6A, B). HUVECs were trypsinized, and 1×10^6 cells were electroporated with ≈0.6 ug mimic-122 or mimic-374b, =3 ug anti-122 or anti-374 or control molecules using electroporation (Amaxa GmbH, Cologne, Germany) as described previously (Cudmore et al., 2007).
# Enzyme-linked immunosorbent assay (ELISA) kits for human sFlt-1 was obtained from R&D Systems and performed according to the manufacturer's specifications.
# Enzyme-linked immunosorbent assay (ELISA) kits for human sFlt-1, sEng and P1GF were obtained from R&D Systems and performed according to the manufacturer's specifications.
# miR-144 = test: qPCR of miR-144 expression in treated HUVEC; format: cell-based, human; conditions: hemin 10 uM
# Protocol: as §3, §4
compound,measurement,setting,value
CC(=O)Oc1ccccc1C(=O)O [aspirin],"prevention of PE, severe PE and IUGR",preeclampsia,up to 50%
CC[C@H](C)C(=O)O[C@H]1C[C@H](O)C=C2C=C[C@H](C)[C@H](CC[C@@H](O)C[C@@H](O)CC(=O)O)[C@H]21 [pravastatin],induction of miR-122 expression,miR-122; pravastatin 2 uM and 20 uM,3-9 fold
same,induction of miR-374b expression,miR-374b; pravastatin 2 uM and 20 uM,2.7 fold
FGF-2: angiogenic growth factor used at 20 ng/ml,elevation of miR-152 expression,miR-152,~65%
hemin,recovery of hemin-reduced sFlt-1 release by VEGF-E stimulation,sFlt-1; hemin 10 uM plus VEGF-E,cannot be recovered
same,sFlt-1 release in endothelial cells,sFlt-1; hemin 10 uM,decreased
same,increase of miR-122 expression,miR-122; hemin 10 uM,20 fold
same,increase of miR-374b expression,miR-374b; hemin 10 uM,2.7 fold
same,effect on miR-144 expression,miR-144,no significant effect
vascular endothelial growth factor A [VEGF-A],decrease of miR-122 expression,miR-122; growth factor 20 ng/ml,47%
same,reduction of miR-374b expression,miR-374b; growth factor 20 ng/ml,20%
